Values of other authors in patent US7223553B2, “Immunoassays for everolimus” (priority 2004, dated 2007).
Read-outs that look alike come from different tables or passages of the source.

Columns and labels:
[1] = heart transplant patients, first year post-transplant
[2] = kidney transplantation; consistent with efficacy while minimizing adverse effects

40-O-(2-hydroxyethyl)-rapamycin [Everolimus]
Everolimus trough levels ([1]; 1.5 mg/day): 5.2 ± 3.8 ng/mL
Everolimus trough levels ([1]; 3 mg/day): 9.4 ± 6.3 ng/mL
Therapeutic concentration [2]: 3 to 15 ng/mL
